What is called pIC50 is the negative decadic logarithm of the IC50, by convention in mol/L. In general, fraction unbound refers to the share of the substance not bound to proteins or other matrix. Usually Papp A→B stands for how fast a substance crosses the layer from the apical side. As a reminder, the Vd is the apparent volume that relates the amount in the body to the concentration in plasma or blood. A word on the AUC(0-t): it is the area under the concentration-time curve up to a stated or last time point. Usually half-life stands for how long it takes for the measured level to halve. The term clearance denotes the volume of plasma or blood freed of the substance per unit of time. The term Tmax denotes the time at which the peak concentration occurs. What is called Cmax is the peak of the concentration-time curve.

pIC50: −log10 of the molar value. Converted amounts (≈) assume the structure as drawn. Bounds are passed on as bounds.

In data set [1] the target is High affinity nerve growth factor receptor (Homo sapiens, UniProt P04629).
Sequence of High affinity nerve growth factor receptor (Homo sapiens, UniProt P04629) (P04629 whole entry): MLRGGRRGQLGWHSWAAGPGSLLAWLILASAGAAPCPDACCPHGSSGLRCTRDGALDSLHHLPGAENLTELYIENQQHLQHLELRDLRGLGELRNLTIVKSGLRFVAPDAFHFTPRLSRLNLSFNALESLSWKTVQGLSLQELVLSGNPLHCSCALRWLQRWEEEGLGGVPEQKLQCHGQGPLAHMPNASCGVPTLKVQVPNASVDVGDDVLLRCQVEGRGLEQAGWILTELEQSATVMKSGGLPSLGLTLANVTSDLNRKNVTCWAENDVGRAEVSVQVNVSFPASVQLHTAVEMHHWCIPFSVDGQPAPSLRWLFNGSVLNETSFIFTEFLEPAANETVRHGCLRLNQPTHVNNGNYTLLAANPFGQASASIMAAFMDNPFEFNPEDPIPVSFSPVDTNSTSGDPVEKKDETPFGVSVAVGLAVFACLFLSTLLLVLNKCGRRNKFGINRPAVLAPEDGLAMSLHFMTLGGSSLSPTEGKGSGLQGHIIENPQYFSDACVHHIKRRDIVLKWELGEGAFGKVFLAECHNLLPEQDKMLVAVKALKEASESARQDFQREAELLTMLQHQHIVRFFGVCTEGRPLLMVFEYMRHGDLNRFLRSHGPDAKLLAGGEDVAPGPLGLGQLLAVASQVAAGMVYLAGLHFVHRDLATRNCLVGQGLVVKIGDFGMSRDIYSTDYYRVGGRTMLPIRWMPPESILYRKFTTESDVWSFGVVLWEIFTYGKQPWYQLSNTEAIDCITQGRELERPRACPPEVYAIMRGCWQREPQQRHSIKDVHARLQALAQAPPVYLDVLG
Description: Inhibition of TrKA (unknown origin) incubated for 120 mins in presence of 33P-ATP
Data set [2] can be described thus: Protein binding in mouse plasma assessed as unbound fraction by LC-MS/MS based equilibrium dialysis method. The class given is ADME, cell-free. In general terms: Equilibrium dialysis compares concentrations on both sides of a semipermeable membrane.
In data set [3] the test system is BaF3. Kind of data set: Cytotoxicity against mouse BaF3 cells transfected with SLC34A2-Ros1 assessed as reduction in cell viability by MTT assay. The class given is functional, cell-based. For orientation: Tetrazolium assays rely on reduction of a dye to a coloured formazan, in cell work by metabolically active cells.
Data set [4] in a line: Metabolic stability in mouse liver microsomes assessed as intrinsic clearance at 1 uM by LC-MS/MS analysis. Conditions: read-out: CLH. The class given is ADME, Microsome. Background: Liver microsomes are a subcellular fraction often used to study metabolism.
Data set [5] in a line: Metabolic stability in human liver microsomes assessed as intrinsic clearance at 1 uM by LC-MS/MS analysis. The class given is ADME, Microsome. The following applies: read-out: CLH.
Data set [6] is described as follows: Protein binding in rat plasma assessed as unbound fraction by LC-MS/MS based equilibrium dialysis method. The class given is ADME, cell-free.
Data set [7] is described as follows: Protein binding in dog plasma assessed as unbound fraction by LC-MS/MS based equilibrium dialysis method. The class given is ADME, cell-free, Canis lupus familiaris.
Data set [8] concerns BaF3. Kind of data set: Cytotoxicity against mouse BaF3 cells transfected with TrKA G623R mutant assessed as reduction in cell viability by MTT assay. The class given is functional, cell-based.
A short description of data set [9]: Metabolic stability in rat liver microsomes assessed as intrinsic clearance at 1 uM by LC-MS/MS analysis. The class given is ADME, Microsome. Conditions: read-out: CLH.
Data set [10] deals with BaF3. Kind of data set: Cytotoxicity against mouse BaF3 cells transfected with TrKA G595R mutant assessed as reduction in cell viability by MTT assay. The class given is functional, cell-based.
A short description of data set [11]: Protein binding in human plasma assessed as unbound fraction by LC-MS/MS based equilibrium dialysis method. The class given is ADME, cell-free.
Data set [12] in a line: Apparent permeability across apical to basolateral side in human Caco-2 cells incubated for 2 hrs by LC-MS/MS analysis. The class given is ADME, cell-based.
Data set [13] in a line: Metabolic stability in dog liver microsomes assessed as intrinsic clearance at 1 uM by LC-MS/MS analysis. The class given is ADME, Canis lupus familiaris, Microsome. Conditions: read-out: CLH.
Data set [14] has as its target High affinity nerve growth factor receptor (Homo sapiens, UniProt P04629, G595R).
Data set [15] deals with ALK tyrosine kinase receptor (Homo sapiens, UniProt Q9UM73).
Sequence of ALK tyrosine kinase receptor (Q9UM73 whole entry): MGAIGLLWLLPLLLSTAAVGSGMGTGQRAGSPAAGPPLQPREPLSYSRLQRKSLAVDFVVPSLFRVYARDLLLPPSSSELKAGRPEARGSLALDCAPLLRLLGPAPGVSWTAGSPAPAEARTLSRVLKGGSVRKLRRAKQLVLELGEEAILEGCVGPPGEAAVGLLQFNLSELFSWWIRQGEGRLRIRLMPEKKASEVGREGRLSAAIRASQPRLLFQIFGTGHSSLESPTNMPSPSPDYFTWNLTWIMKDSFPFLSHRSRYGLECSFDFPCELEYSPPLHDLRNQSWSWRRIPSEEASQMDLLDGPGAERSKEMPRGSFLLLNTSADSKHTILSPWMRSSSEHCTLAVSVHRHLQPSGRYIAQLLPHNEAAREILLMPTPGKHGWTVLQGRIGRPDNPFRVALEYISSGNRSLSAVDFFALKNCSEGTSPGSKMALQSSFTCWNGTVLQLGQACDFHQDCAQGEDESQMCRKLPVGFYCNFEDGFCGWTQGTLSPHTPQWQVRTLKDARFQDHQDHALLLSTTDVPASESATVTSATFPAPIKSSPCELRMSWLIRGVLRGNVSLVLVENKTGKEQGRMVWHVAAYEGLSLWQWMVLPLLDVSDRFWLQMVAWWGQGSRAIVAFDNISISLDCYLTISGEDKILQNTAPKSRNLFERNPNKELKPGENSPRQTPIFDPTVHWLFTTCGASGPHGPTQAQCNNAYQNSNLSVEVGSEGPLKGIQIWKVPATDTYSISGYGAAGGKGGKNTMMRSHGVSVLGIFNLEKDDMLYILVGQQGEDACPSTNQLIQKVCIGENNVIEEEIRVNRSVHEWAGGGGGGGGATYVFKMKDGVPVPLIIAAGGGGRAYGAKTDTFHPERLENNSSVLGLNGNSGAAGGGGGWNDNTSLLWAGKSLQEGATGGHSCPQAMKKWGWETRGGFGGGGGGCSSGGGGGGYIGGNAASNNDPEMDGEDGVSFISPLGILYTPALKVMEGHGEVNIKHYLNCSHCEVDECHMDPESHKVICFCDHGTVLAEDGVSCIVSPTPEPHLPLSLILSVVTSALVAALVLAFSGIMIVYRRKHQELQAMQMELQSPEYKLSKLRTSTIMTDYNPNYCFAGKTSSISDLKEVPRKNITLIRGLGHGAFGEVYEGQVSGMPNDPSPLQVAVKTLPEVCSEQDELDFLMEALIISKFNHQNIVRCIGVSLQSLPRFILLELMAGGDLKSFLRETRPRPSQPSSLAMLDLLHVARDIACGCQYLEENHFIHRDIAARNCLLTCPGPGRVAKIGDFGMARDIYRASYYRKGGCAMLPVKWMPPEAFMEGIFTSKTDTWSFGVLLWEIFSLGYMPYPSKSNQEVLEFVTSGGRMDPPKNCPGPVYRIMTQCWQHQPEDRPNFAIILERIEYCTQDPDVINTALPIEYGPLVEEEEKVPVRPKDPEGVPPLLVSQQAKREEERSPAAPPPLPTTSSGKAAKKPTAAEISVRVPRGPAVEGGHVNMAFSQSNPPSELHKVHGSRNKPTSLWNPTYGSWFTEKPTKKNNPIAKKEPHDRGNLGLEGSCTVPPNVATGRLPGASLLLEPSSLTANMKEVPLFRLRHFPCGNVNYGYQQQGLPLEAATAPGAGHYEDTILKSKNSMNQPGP
Description: Inhibition of ALK (unknown origin) incubated for 120 mins in presence of 33P-ATP
Data set [16] has as its target Voltage-gated inwardly rectifying potassium channel KCNH2 (Homo sapiens, UniProt Q12809). Kind of data set: Inhibition of human ERG.
For data set [17], the system named is BaF3. Kind of data set: Cytotoxicity against mouse BaF3 cells transfected with TrKA F589L mutant assessed as reduction in cell viability by MTT assay. The class given is functional, cell-based.
The nature of data set [18]: Volume of distribution in Sprague-Dawley rat at 3 mg/kg measured up to 24 hrs by LC-MS/MS analysis. The class given is ADME, organism-based. The following applies: in vivo.
A further data set addresses T1, Cytochrome P450 1A2 (Homo sapiens, UniProt P05177).
T1 sequence (P05177 whole entry): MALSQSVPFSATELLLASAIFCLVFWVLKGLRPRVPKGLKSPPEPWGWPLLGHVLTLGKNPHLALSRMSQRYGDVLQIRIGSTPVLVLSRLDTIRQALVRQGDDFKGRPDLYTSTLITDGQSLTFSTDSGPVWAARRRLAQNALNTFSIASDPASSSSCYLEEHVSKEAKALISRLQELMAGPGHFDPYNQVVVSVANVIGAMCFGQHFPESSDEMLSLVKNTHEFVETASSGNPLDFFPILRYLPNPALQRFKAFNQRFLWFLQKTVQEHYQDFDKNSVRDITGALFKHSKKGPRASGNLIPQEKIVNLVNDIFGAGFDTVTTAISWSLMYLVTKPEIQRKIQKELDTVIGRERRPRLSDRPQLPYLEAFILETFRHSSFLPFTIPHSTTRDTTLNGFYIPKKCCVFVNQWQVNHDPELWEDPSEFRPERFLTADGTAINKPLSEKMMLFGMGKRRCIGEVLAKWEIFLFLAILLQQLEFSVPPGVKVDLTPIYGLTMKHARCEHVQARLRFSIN
Kind of data set: Inhibition of CYP1A2 in human pooled liver microsomes using phenacetin as substrate in presence of NADPH by LC-MS/MS analysis. The class given is ADME.

Data set [19] can be described thus: AUC (0 to t) in Sprague-Dawley rat at 10 mg/kg, po measured up to 24 hrs by LC-MS/MS analysis. The class given is ADME, organism-based. The following applies: in vivo. Also on record: route oral, dose 10 mg/kg, time <=24.
For a further data set, the target named is Cytochrome P450 2C9 (Homo sapiens, UniProt P11712). Kind of data set: Inhibition of CYP2C9 in human pooled liver microsomes using diclofenac as substrate in presence of NADPH by LC-MS/MS analysis. The class given is ADME.
Data set [20] in a line: Half life in Sprague-Dawley rat at 3 mg/kg measured up to 24 hrs by LC-MS/MS analysis. The class given is ADME, organism-based. Conditions: in vivo.
A short description of data set [21]: Kinetic solubility of the compound. The class given is physicochemical. Conditions: read-out: Kinetic_solubility.
Data set [22] concerns BaF3. Kind of data set: cells. The following applies: Mus musculus.
Description: Cytotoxicity against mouse BaF3 cells transfected with TrKA assessed as reduction in cell viability by MTT assay
Data set [23] can be described thus: Clearance in Sprague-Dawley rat at 3 mg/kg measured up to 24 hrs by LC/MS/MS analysis. The class given is ADME, organism-based. Conditions: in vivo.
A short description of data set [24]: C0 in Sprague-Dawley rat at 3 mg/kg measured up to 24 hrs by LC/MS/MS analysis. The following applies: in vivo. The class given is ADME, organism-based.
Data set [25] in a line: Tmax in Sprague-Dawley rat at 10 mg/kg, po measured up to 24 hrs by LC-MS analysis. The class given is ADME, organism-based. Conditions: in vivo.
A further data set has as its target Cytochrome P450 2C19 (Homo sapiens, UniProt P33261). Briefly: Inhibition of CYP2C19 in human pooled liver microsomes using S-mephenytoin as substrate in presence of NADPH by LC-MS/MS analysis. The class given is ADME.
The next data set has as its target Cytochrome P450 2D6 (Homo sapiens, UniProt P10635). Kind of data set: Inhibition of CYP2D6 in human pooled liver microsomes using dextromethorphan as substrate in presence of NADPH by LC-MS/MS analysis. The class given is ADME.
A short description of data set [26]: Cmax in Sprague-Dawley rat at 10 mg/kg, po measured up to 24 hrs by LC-MS/MS analysis. The class given is ADME, organism-based. Set-up: route oral, dose 10 mg/kg, time <=24. Conditions: in vivo.
The nature of data set [27]: AUC (0 to t) in Sprague-Dawley rat at 3 mg/kg measured up to 24 hrs by LC-MS/MS analysis. The following applies: in vivo. The class given is ADME, organism-based. Also on record: dose 3 mg/kg, time <=24.
Another data set concerns the target Cytochrome P450 3A4 (Homo sapiens, UniProt P08684). Kind of data set: Inhibition of CYP3A4 in human pooled liver microsomes using midazolam and testosterone as substrate in presence of NADPH by LC-MS/MS analysis. The class given is ADME.
Data set [28] in a line: Oral bioavailability in Sprague-Dawley rat at 10 mg/kg measured up to 24 hrs by LC/MS/MS analysis. The class given is ADME, organism-based. The following applies: in vivo.

Sequence of Cytochrome P450 2D6 (P10635 whole entry): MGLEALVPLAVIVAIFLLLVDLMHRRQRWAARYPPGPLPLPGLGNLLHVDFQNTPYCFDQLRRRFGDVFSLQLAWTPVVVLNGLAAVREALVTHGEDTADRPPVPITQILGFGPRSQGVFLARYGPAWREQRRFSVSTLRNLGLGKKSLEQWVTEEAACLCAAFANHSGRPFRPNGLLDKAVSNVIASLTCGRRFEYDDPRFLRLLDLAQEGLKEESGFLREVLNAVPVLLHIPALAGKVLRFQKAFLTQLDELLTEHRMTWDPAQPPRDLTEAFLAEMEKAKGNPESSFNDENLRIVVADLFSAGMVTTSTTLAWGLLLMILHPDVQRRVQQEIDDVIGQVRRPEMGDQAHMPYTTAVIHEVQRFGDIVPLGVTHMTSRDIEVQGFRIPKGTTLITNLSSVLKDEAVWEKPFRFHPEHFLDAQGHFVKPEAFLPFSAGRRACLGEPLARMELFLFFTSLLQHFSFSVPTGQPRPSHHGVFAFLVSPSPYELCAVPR
Sequence of High affinity nerve growth factor receptor (Homo sapiens, UniProt P04629, G595R) (P04629 33-796 G595R limits assumed): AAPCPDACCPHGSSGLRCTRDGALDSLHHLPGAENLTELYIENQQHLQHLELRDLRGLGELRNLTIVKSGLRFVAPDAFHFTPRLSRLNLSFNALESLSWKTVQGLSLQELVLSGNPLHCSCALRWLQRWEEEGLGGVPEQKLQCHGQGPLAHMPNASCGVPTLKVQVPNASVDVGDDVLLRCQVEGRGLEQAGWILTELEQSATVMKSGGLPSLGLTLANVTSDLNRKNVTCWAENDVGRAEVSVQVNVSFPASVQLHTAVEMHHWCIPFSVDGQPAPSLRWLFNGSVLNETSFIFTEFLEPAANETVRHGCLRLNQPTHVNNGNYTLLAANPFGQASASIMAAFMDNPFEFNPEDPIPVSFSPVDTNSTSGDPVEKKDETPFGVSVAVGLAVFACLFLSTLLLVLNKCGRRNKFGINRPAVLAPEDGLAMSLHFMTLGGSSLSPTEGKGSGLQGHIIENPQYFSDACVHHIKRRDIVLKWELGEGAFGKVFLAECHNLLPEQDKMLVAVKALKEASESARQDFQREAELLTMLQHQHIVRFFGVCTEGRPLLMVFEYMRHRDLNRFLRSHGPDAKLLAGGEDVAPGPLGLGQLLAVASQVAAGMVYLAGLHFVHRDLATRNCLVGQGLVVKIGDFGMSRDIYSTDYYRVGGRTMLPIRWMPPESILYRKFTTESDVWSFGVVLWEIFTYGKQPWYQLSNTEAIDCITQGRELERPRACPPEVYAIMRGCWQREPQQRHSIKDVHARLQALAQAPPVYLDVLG
Sequence of Cytochrome P450 3A4 (P08684 whole entry): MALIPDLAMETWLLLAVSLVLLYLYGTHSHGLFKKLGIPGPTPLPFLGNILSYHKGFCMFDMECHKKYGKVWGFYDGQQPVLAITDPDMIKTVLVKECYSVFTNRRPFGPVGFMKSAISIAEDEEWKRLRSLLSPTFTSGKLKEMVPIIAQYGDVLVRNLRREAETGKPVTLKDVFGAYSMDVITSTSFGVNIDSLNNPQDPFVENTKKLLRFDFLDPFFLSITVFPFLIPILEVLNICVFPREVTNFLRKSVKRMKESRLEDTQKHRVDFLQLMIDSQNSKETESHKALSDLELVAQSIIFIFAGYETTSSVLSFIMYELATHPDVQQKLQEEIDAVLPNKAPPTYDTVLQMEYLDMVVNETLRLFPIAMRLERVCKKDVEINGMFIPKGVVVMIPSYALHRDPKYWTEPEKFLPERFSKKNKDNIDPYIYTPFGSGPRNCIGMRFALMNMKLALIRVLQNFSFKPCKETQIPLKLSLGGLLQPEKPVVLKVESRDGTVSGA
Sequence of Cytochrome P450 2C19 (P33261 whole entry): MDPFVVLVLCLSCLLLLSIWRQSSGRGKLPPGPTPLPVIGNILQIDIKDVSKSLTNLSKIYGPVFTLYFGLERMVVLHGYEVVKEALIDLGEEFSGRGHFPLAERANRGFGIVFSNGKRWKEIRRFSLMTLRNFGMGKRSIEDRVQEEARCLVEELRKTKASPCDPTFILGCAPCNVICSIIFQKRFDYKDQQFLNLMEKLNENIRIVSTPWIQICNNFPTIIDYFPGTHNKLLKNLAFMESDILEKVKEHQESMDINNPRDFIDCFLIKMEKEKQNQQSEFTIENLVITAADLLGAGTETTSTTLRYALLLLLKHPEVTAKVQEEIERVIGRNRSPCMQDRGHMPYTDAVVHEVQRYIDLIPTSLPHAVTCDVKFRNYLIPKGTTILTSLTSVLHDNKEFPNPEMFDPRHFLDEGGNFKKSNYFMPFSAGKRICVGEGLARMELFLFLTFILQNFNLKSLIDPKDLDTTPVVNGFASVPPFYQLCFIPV

In data set [1], `C[C@@H]1COc2ncc(F)cc2C23CC2CCN3c2ccn3ncc(c3n2)C(=O)N1` (some centres undefined) gave a pIC50 of 7.17.
Same read-out and setting: then `C[C@H]1Nc2ccn3ncc(c3n2)C(=O)N2CCN(CC2)c2ccc(F)cc21`, with less than 6.00.
Regarding `O=C1NC2(CC2)COc2ncc(F)cc2[C@H]2CCCCN2c2ccn3ncc1c3n2`, the fraction unbound turned out to be 0.02 in data set [2], 0.02 in [6], 0.03 in [7] and 0.02 in data set [11]. Also, the pIC50 with BaF3 [3] is 7.90; in data set [1] it was 8.49; in the data set on BaF3 [8], 8.24; with BaF3 [10], 9.40; in data set [14] it was 8.68; in data set [15], 7.73. The CLint scaled at 1 µM in data set [4] was 1010 mL/min/kg; in data set [5], 242 mL/min/kg; in [9], 980 mL/min/kg; in [13], 268 mL/min/kg. For the same molecule, the Papp A→B at 2 h in [12] was 16.3 ×10⁻⁶ cm/s.
`C[C@H]1Nc2ccn3ncc(c3n2)C(=O)N2CCC(CC2)c2ccc(F)cc21` had a pIC50 in data set [1] of less than 6.00.
For the molecule `O=C1NC2(CC2)COc2ncc(F)cc2[C@H]2CNCCN2c2ccn3ncc1c3n2`, the fraction unbound in data set [2] was 0.28; in data set [6] it was 0.3; in data set [7], 0.34; in [11] it was 0.36. Also, in [16], the negative logarithm of the IC50 (pIC50) is 5.17. Moreover, the CLint scaled at 1 µM in data set [4] was determined as 342 mL/min/kg; in [5], 43 mL/min/kg; in data set [9] it was 29 mL/min/kg; in data set [13] it was 74 mL/min/kg. Moreover, in data set [12], the Papp A→B at 2 h amounted to 3.9 ×10⁻⁶ cm/s.
As to `C[C@H]1NC(=O)c2cnn3ccc(nc23)N[C@H](C)c2cc(F)ccc2NC1=O`, the negative-log IC50 (pIC50) in data set [1] is 6.07.
On to `C[C@H]1CNC(=O)c2cnn3ccc(nc23)N[C@H](C)c2cc(F)ccc2O1` [REPOTRECTINIB], for which the negative logarithm of the IC50 (pIC50) in the data set on BaF3 [17] is 9.15; at Cytochrome P450 1A2, less than 4.30; in the data set on BaF3 [3], 8.66; at Cytochrome P450 2C9 it was 5.19; with BaF3 [22], 8.74; in the data set with BaF3 [8], 8.32. Further, the negative logarithm of the IC50 (pIC50) on Cytochrome P450 2C19 was 4.91; at Cytochrome P450 2D6 it was 4.55; in the data set with BaF3 [10] it was 8.10; on Cytochrome P450 3A4, less than 4.30. This molecule had a Vd in data set [18] of 1.1 L/kg. In addition, the unbound share (fraction unbound) in data set [2] is 0.05; in data set [6], 0.06; in data set [7] it was 0.09; in [11] it was 0.05. Further, the results for the AUC(0-t) at 24 h in data set [19] and in data set [27] were 59.7 µM·h and 15 µM·h, respectively. In addition, the CLint scaled at 1 µM in data set [4] worked out at 982 mL/min/kg; in [5] it was 29 mL/min/kg; in [9] it was 49 mL/min/kg; in data set [13], 21 mL/min/kg. In [20], the half-life was 2.8 h. For the same molecule, the solubility kinetic in data set [21] came to 65.8 µM (≈ 23.4 µg/mL). Further, in data set [23], the clearance was determined as 9.4 mL/min/kg. This molecule also yielded a C0 in data set [24] of 12.87 µM. In addition, the time to peak (Tmax) in data set [25] turned out to be 0.8 h. Moreover, the apparent permeability from apical to basolateral (Papp A→B) at 2 h in [12] is 0.9 ×10⁻⁶ cm/s. Moreover, in data set [26], the concentration peaked (Cmax) at 16.9 µM. For the same molecule, the bioavailability in data set [28] came to 119%.
Take `C[C@H]1CNS(=O)(=O)c2cnn3ccc(nc23)N[C@H](C)c2cc(F)ccc2O1`: in [1], the pIC50 was less than 6.00.

(Values after ChEMBL document CHEMBL5034019, “Discovery of the Next-Generation Pan-TRK Kinase Inhibitors for the Treatment of Cancer” (J Med Chem, 2021).)
